From US9491943B2, “Bioengineering strain for production of novel microorganism-originated fungicides and uses thereof” (SHANGHAI JIAOTONG UNIVERSITY, priority 2011, dated 2016) come the findings set out here.

For the experiment, the system named is rhizoctonia solani. Put plainly: Antifungal rate (inhibition of hypha growth) on potato glucose culture medium plates. The class given is cell-based. To be noted: 16 mg/L in potato glucose culture medium, 28° C.

For `NC(=O)c1cccc2nc3ccccc3nc12` [phenazine-1-carboxamide], the “antifungal activity (antifungal rate) against rhizoctonia solani” value is on record as 65% (acidity (pH) 4.0); 69% (acidity (pH) 5.0); 73.6% (acidity (pH) 6.0); 80.1% (acidity (pH) 7.0); 90% (acidity (pH) 8.0).
